How the values were obtained:
Assay type in all cases: in vivo
Diabrotica balteata = assay: Example B1: Diabrotica balteata (corn root worm), maize sprouts sprayed, L2 larvae; conditions: 96 h, application rate of 200 ppm, 4 days after infestation, read-out: control in at least one of the two categories (mortality or growth inhibition)
Experimental: Example B1: Diabrotica balteata (Corn Root Worm)
Maize sprouts placed onto an agar layer in 24-well microtiter plates were treated with aqueous test solutions prepared from 10′000 ppm DMSO stock solutions by spraying. After drying, the plates were infested with L2 larvae (6 to 10 per well). The samples were assessed for mortality and growth inhibition in comparison to untreated samples 4 days after infestation.
The following compounds gave an effect of at least 80% control in at least one of the two categories (mortality or growth inhibition) at an application rate of 200 ppm: […]

Chilo suppressalis = assay: Example B3: Chilo suppressalis (striped rice stem borer), artificial diet, L2 larvae; conditions: 144 h, application rate of 200 ppm, 6 days after infestation, read-out: control in at least one of the three categories (mortality, anti-feedant effect, or growth inhibition)
Experimental: Example B3: Chilo suppressalis (Striped Rice Stem Borer)
24-well microtiter plates with artificial diet were treated with aqueous test solutions prepared from 10′000 ppm DMSO stock solutions by pipetting. After drying, the plates were infested with L2 larvae (6-8 per well). The samples were assessed for mortality, anti-feeding effect, and growth inhibition in comparison to untreated samples 6 days after infestation. Control of Chilo suppressalis by a test sample is given when at least one of the categories mortality, anti-feedant effect, and growth inhibition is higher than the untreated sample.

Plutella xylostella [1] = assay: Example B4: Plutella xylostella (diamond back moth), artificial diet, 24-well, eggs; conditions: 192 h, application rate of 200 ppm, 8 days after infestation, 24-well plates, read-out: control in at least one of the two categories (mortality or growth inhibition)
Experimental: Example B4: Plutella xylostella (Diamond Back Moth)
24-well microtiter plates with artificial diet were treated with aqueous test solutions prepared from 10′000 ppm DMSO stock solutions by pipetting. After drying, Plutella eggs were pipetted through a plastic stencil onto a gel blotting paper and the plate was closed with it. The samples were assessed for mortality and growth inhibition in comparison to untreated samples 8 days after infestation. The following compounds gave an effect of at least 80% control in at least one of the two categories (mortality or growth inhibition) at an application rate of 200 ppm: […]

Spodoptera littoralis = assay: Example B7: Spodoptera littoralis (Egyptian cotton leaf worm), cotton leaf discs sprayed, L1 larvae; conditions: foliar, 72 h, application rate of 200 ppm, 3 days after infestation, read-out: control in at least one of the three categories (mortality, anti-feedant effect, or growth inhibition)
Experimental: Example B7: Spodoptera littoralis (Egyptian Cotton Leaf Worm)
Cotton leaf discs were placed onto agar in 24-well microtiter plates and sprayed with aqueous test solutions prepared from 10′000 ppm DMSO stock solutions. After drying the leaf discs were infested with five L1 larvae. The samples were assessed for mortality, anti-feeding effect, and growth inhibition in comparison to untreated samples 3 days after infestation. Control of Spodoptera littoralis by a test sample is given when at least one of the categories mortality, anti-feedant effect, and growth inhibition is higher than the untreated sample.

Plutella xylostella [2] = assay: Example B10: Plutella xylostella (diamondback moth), artificial diet, 96-well, eggs; conditions: 216 h, application rate of 500 ppm, 9 days after infestation, 96-well plates
Experimental: Example B10: Plutella xylostella (Diamondback Moth)
96-well microtiter plates containing artificial diet were treated with aqueous test solutions, prepared from 10′000 ppm DMSO stock solutions, by a liquid handling robot. After drying, eggs (˜30 per well) were infested onto a netted lid which was suspended above the diet. The eggs hatch and L1 larvae move down to the diet. The samples were assessed for mortality 9 days after infestation.
The following compounds gave an effect of at least 80% average mortality at an application rate of 500 ppm: […]

CC(NC(=O)c1cc(Br)cc(OC(F)F)c1)c1ncnn1-c1ccc(C#N)cn1 (centres unmarked) [Compound F1, 3-bromo-N-[1-[2-(5-cyano-2-pyridyl)-1,2,4-triazol-3-yl]ethyl]-5-( ) difluoromethoxy benzamide]
≥ 80%: percent control (mortality or growth inhibition) at 200 ppm (Diabrotica balteata) | percent control (mortality, anti-feedant effect or growth inhibition) at 200 ppm (Chilo suppressalis) | percent control (mortality or growth inhibition) at 200 ppm (Plutella xylostella [1]) | percent control (mortality, anti-feedant effect or growth inhibition) at 200 ppm (Spodoptera littoralis) | mortality at 500 ppm (Plutella xylostella [2])

CC(NC(=O)c1cc(C(F)(F)F)cc(C(F)(F)F)c1)c1ncnn1-c1ccc(C#N)cn1 (centres unmarked) [Compound F3, N-[1-[2-(5-cyano-2-pyridyl)-1,2,4-triazol-3-yl]ethyl]-3,5-bis(trifluoromethyl) benzamide]
≥ 80%: percent control (mortality or growth inhibition) at 200 ppm (Diabrotica balteata) | percent control (mortality, anti-feedant effect or growth inhibition) at 200 ppm (Chilo suppressalis) | percent control (mortality or growth inhibition) at 200 ppm (Plutella xylostella [1]) | percent control (mortality, anti-feedant effect or growth inhibition) at 200 ppm (Spodoptera littoralis) | mortality at 500 ppm (Plutella xylostella [2])

CC(NC(=O)c1cc(SC(F)(F)F)cc(C(F)(F)F)c1)c1ncnn1-c1ccc(C#N)cn1 (centres unmarked) [Compound F5, N-[1-[2-(5-cyano-2-pyridyl)-1,2,4-triazol-3-yl]ethyl]-3-(trifluoromethyl)-5-(trifluoromethylsulfanyl) benzamide]
≥ 80%: percent control (mortality or growth inhibition) at 200 ppm (Diabrotica balteata) | percent control (mortality, anti-feedant effect or growth inhibition) at 200 ppm (Chilo suppressalis) | percent control (mortality or growth inhibition) at 200 ppm (Plutella xylostella [1]) | percent control (mortality, anti-feedant effect or growth inhibition) at 200 ppm (Spodoptera littoralis) | mortality at 500 ppm (Plutella xylostella [2])

Cc1nc(C(C)NC(=O)c2cc(C(F)(F)F)cc(C(F)(F)F)c2)n(-c2ccc(C#N)cn2)n1 (centres unmarked) [Compound F7, N-[1-[2-(5-cyano-2-pyridyl)-5-methyl-1,2,4-triazol-3-yl]ethyl]-3,5-bis (trifluoromethyl) benzamide]
≥ 80%: percent control (mortality or growth inhibition) at 200 ppm (Diabrotica balteata) | percent control (mortality or growth inhibition) at 200 ppm (Plutella xylostella [1]) | percent control (mortality, anti-feedant effect or growth inhibition) at 200 ppm (Spodoptera littoralis)

CC(NC(=O)c1cc(C(F)(F)F)cc(C(F)(F)F)c1)c1nc(C2CC2)nn1-c1ccc(C#N)cn1 (centres unmarked) [Compound F10, N-[1-[2-(5-cyano-2-pyridyl)-5-cyclopropyl-1,2,4-triazol-3-yl]ethyl]-3,5-bis(trifluoromethyl) benzamide]
≥ 80%: percent control (mortality or growth inhibition) at 200 ppm (Diabrotica balteata) | percent control (mortality, anti-feedant effect or growth inhibition) at 200 ppm (Chilo suppressalis) | percent control (mortality or growth inhibition) at 200 ppm (Plutella xylostella [1]) | percent control (mortality, anti-feedant effect or growth inhibition) at 200 ppm (Spodoptera littoralis) | mortality at 500 ppm (Plutella xylostella [2])

CC(NC(=O)c1cc(Br)cc(C(F)(F)F)c1)c1nc(C2CC2)nn1-c1ccc(C#N)cn1 (centres unmarked) [Compound F11, 3-bromo-N-[1-[2-(5-cyano-2-pyridyl)-5-cyclopropyl-1,2,4-triazol-3-yl]ethyl]-5-(trifluoromethyl) benzamide]
≥ 80%: percent control (mortality or growth inhibition) at 200 ppm (Diabrotica balteata) | percent control (mortality, anti-feedant effect or growth inhibition) at 200 ppm (Chilo suppressalis) | percent control (mortality or growth inhibition) at 200 ppm (Plutella xylostella [1]) | mortality at 500 ppm (Plutella xylostella [2])

CC(NC(=O)c1cc(OC(F)F)cc(C(F)(F)F)c1)c1ncnn1-c1ccc(C#N)cn1 (centres unmarked) [Compound F13, N-[1-[2-(5-cyano-2-pyridyl)-1,2,4-triazol-3-yl]ethyl]-3-(difluoromethoxy)-5-(trifluoromethyl) benzamide]
≥ 80%: percent control (mortality or growth inhibition) at 200 ppm (Diabrotica balteata) | percent control (mortality or growth inhibition) at 200 ppm (Plutella xylostella [1]) | percent control (mortality, anti-feedant effect or growth inhibition) at 200 ppm (Spodoptera littoralis)

CC(NC(=O)c1cc(Br)cc(C(F)(F)F)c1)c1ncnn1-c1ccc(C#N)cn1 (centres unmarked) [Compound F14, 3-bromo-N-[1-[2-(5-cyano-2-pyridyl)-1,2,4-triazol-3-yl]ethyl]-5-(trifluoromethyl) benzamide]
≥ 80%: percent control (mortality or growth inhibition) at 200 ppm (Diabrotica balteata) | percent control (mortality or growth inhibition) at 200 ppm (Plutella xylostella [1]) | percent control (mortality, anti-feedant effect or growth inhibition) at 200 ppm (Spodoptera littoralis)

CC(NC(=O)c1cc(C(F)F)cc(C(F)(F)F)c1)c1ncnn1-c1ccc(C#N)cn1 (centres unmarked) [Compound F15, N-[1-[2-(5-cyano-2-pyridyl)-1,2,4-triazol-3-yl]ethyl]-3-(difluoromethyl)-5-(trifluoromethyl) benzamide]
≥ 80%: percent control (mortality or growth inhibition) at 200 ppm (Diabrotica balteata) | percent control (mortality, anti-feedant effect or growth inhibition) at 200 ppm (Chilo suppressalis) | percent control (mortality or growth inhibition) at 200 ppm (Plutella xylostella [1]) | percent control (mortality, anti-feedant effect or growth inhibition) at 200 ppm (Spodoptera littoralis)

CC(NC(=O)c1cc(OC(F)(F)F)cc(C(F)(F)F)c1)c1ncnn1-c1ccc(C#N)cn1 (centres unmarked) [Compound F17, N-[1-[2-(5-cyano-2-pyridyl)-1,2,4-triazol-3-yl]ethyl]-3-(trifluoromethoxy)-5-(trifluoromethyl) benzamide]
≥ 80%: percent control (mortality or growth inhibition) at 200 ppm (Diabrotica balteata) | percent control (mortality, anti-feedant effect or growth inhibition) at 200 ppm (Chilo suppressalis) | percent control (mortality or growth inhibition) at 200 ppm (Plutella xylostella [1]) | percent control (mortality, anti-feedant effect or growth inhibition) at 200 ppm (Spodoptera littoralis) | mortality at 500 ppm (Plutella xylostella [2])

CC(NC(=O)c1cc(OCC(F)F)cc(C(F)(F)F)c1)c1ncnn1-c1ccc(C#N)cn1 (centres unmarked) [Compound F18, N-[1-[2-(5-cyano-2-pyridyl)-1,2,4-triazol-3-yl]ethyl]-3-(2,2-difluoroethoxy)-5-(trifluoromethyl) benzamide]
≥ 80%: percent control (mortality or growth inhibition) at 200 ppm (Diabrotica balteata) | percent control (mortality, anti-feedant effect or growth inhibition) at 200 ppm (Chilo suppressalis) | percent control (mortality or growth inhibition) at 200 ppm (Plutella xylostella [1]) | percent control (mortality, anti-feedant effect or growth inhibition) at 200 ppm (Spodoptera littoralis) | mortality at 500 ppm (Plutella xylostella [2])

CC(NC(=O)c1cc(Br)cc(OCC(F)(F)F)c1)c1ncnn1-c1ccc(C#N)cn1 (centres unmarked) [Compound F19, 3-bromo-N-[1-[2-(5-cyano-2-pyridyl)-1,2,4-triazol-3-yl]ethyl]-5-(2,2,2-trifluoroethoxy) benzamide]
≥ 80%: percent control (mortality, anti-feedant effect or growth inhibition) at 200 ppm (Chilo suppressalis) | percent control (mortality or growth inhibition) at 200 ppm (Plutella xylostella [1]) | percent control (mortality, anti-feedant effect or growth inhibition) at 200 ppm (Spodoptera littoralis) | mortality at 500 ppm (Plutella xylostella [2])

CC(NC(=O)c1cc(Br)cc(OCC(F)F)c1)c1ncnn1-c1ccc(C#N)cn1 (centres unmarked) [Compound F20, 3-bromo-N-[1-[2-(5-cyano-2-pyridyl)-1,2,4-triazol-3-yl]ethyl]-5-(2,2-difluoroethoxy) benzamide]
≥ 80%: percent control (mortality, anti-feedant effect or growth inhibition) at 200 ppm (Chilo suppressalis) | percent control (mortality or growth inhibition) at 200 ppm (Plutella xylostella [1]) | percent control (mortality, anti-feedant effect or growth inhibition) at 200 ppm (Spodoptera littoralis) | mortality at 500 ppm (Plutella xylostella [2])

CC(NC(=O)c1cc(Cl)cc(Cl)c1)c1ncnn1-c1ccc(C#N)cn1 (centres unmarked) [Compound F22, 3,5-dichloro-N-[1-[2-(5-cyano-2-pyridyl)-1,2,4-triazol-3-yl]ethyl]benzamide]
≥ 80%: percent control (mortality or growth inhibition) at 200 ppm (Diabrotica balteata) | percent control (mortality, anti-feedant effect or growth inhibition) at 200 ppm (Chilo suppressalis) | percent control (mortality or growth inhibition) at 200 ppm (Plutella xylostella [1]) | percent control (mortality, anti-feedant effect or growth inhibition) at 200 ppm (Spodoptera littoralis)

CC(NC(=O)c1cc(Cl)cc(Br)c1)c1ncnn1-c1ccc(C#N)cn1 (centres unmarked) [Compound F23, 3-bromo-5-chloro-N-[1-[2-(5-cyano-2-pyridyl)-1,2,4-triazol-3-yl]ethyl]benzamide]
≥ 80%: percent control (mortality or growth inhibition) at 200 ppm (Diabrotica balteata) | percent control (mortality or growth inhibition) at 200 ppm (Plutella xylostella [1]) | percent control (mortality, anti-feedant effect or growth inhibition) at 200 ppm (Spodoptera littoralis)

Reference: patent US20210395217A1, “PESTICIDALLY ACTIVE AZOLE-AMIDE COMPOUNDS” (SYNGENTA PARTICIPATIONS AG, priority 2018, published 2021)
